How the values were obtained:
[1] = Clearance in Lewis rat at 1 mg/kg, iv measured upto 24 hrs by LC-MS/MS analysis; assay type: ADME, organism-based; details: in vivo
Cytochrome P450 2C9 = Cytochrome P450 2C9 (Homo sapiens, UniProt P11712); assay: Inhibition of CYP2C9 in human liver microsomes at 10 uM by LC-MS/MS analysis; assay type: ADME
[2] = Metabolic stability in human liver microsomes preincubated for 5 mins followed by NADPH addition and measured upto 30 mins by LC-MS/MS analysis; assay type: ADME, Microsome; details: 0.5 h, time <=35 min
[3] = Tmax in Lewis rat at 1 mg/kg, iv measured upto 24 hrs by LC-MS/MS analysis; assay type: ADME, organism-based; details: in vivo
[4] = Oral bioavailability in Lewis rat at 10 mg/kg measured upto 24 hrs by LC-MS/MS analysis; assay type: ADME, organism-based; details: in vivo
[5] = Apparent permeability across apical to basolateral side in human Caco-2 cells at 5 uM measured upto 120 mins in orbital shaker; assay type: ADME, cell-based
[6] = Volume of distribution at steady state in Lewis rat at 1 mg/kg, iv measured upto 24 hrs by LC-MS/MS analysis; assay type: ADME, organism-based; details: in vivo, read-out: Vdss
[7] = Tmax in Lewis rat at 10 mg/kg, po measured upto 24 hrs by LC-MS/MS analysis; assay type: ADME, organism-based; details: in vivo
[8] = Cmax in BALB/c mouse at 1 mg/kg, iv measured upto 24 hrs by LC-MS/MS analysis; assay type: ADME, organism-based; parameters: route intravenous, dose 1 mg/kg, time <=24; details: in vivo
Cytochrome P450 2D6 = Cytochrome P450 2D6 (Homo sapiens, UniProt P10635); assay: Inhibition of CYP2D6 in human liver microsomes at 10 uM by LC-MS/MS analysis; assay type: ADME
[9] = Plasma protein binding; assay type: ADME, cell-free; details: read-out: PPB
[10] = Cmax in Lewis rat at 10 mg/kg, po measured upto 24 hrs by LC-MS/MS analysis; assay type: ADME, organism-based; parameters: route oral, dose 10 mg/kg, time <=24; details: in vivo
[11] = Metabolic stability in dog liver microsomes preincubated for 5 mins followed by NADPH addition and measured upto 30 mins by LC-MS/MS analysis; assay type: ADME, Canis lupus familiaris, Microsome; details: 0.5 h, time <=35 min
Cytochrome P450 2B6 = target: T1, Cytochrome P450 2B6 (Homo sapiens, UniProt P20813); assay: Inhibition of CYP2B6 in human liver microsomes at 10 uM by LC-MS/MS analysis; assay type: ADME
T1 sequence (P20813 whole entry): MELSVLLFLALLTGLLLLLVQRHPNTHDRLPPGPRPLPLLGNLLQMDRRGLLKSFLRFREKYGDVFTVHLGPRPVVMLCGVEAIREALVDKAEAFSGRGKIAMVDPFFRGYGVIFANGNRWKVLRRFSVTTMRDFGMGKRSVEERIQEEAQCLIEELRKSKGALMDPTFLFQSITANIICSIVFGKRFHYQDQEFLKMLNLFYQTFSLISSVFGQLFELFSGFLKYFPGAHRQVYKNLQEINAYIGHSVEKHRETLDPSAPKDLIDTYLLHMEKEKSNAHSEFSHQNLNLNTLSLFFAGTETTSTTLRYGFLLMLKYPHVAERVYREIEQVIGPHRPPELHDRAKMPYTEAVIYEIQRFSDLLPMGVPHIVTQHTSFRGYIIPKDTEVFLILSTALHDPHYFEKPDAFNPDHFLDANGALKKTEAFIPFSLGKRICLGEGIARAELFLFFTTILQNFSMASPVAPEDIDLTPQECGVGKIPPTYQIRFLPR

[12] = Half life in Lewis rat at 1 mg/kg, iv measured upto 24 hrs by LC-MS/MS analysis; assay type: ADME, organism-based; details: in vivo
Cytochrome P450 1A2 = target: T2, Cytochrome P450 1A2 (Homo sapiens, UniProt P05177); assay: Inhibition of CYP1A2 in human liver microsomes at 10 uM by LC-MS/MS analysis; assay type: ADME
T2 sequence (P05177 whole entry): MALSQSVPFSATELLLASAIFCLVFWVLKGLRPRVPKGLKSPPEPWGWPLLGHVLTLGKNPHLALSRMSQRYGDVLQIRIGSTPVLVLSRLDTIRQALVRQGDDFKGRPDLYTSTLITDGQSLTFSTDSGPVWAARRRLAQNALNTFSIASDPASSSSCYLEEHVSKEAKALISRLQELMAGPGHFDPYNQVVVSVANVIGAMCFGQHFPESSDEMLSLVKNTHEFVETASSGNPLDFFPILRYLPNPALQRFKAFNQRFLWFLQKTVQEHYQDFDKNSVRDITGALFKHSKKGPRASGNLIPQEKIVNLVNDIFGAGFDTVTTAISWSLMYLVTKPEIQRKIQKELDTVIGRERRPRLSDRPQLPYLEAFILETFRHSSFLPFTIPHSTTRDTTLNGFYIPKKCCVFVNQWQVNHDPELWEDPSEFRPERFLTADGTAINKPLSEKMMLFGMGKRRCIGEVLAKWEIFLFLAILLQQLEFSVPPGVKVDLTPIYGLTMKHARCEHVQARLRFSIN

[13] = Clearance in BALB/c mouse at 1 mg/kg, iv measured upto 24 hrs by LC-MS/MS analysis; assay type: ADME, organism-based; details: in vivo
[14] = Metabolic stability in rat liver microsomes preincubated for 5 mins followed by NADPH addition and measured upto 30 mins by LC-MS/MS analysis; assay type: ADME, Microsome; details: 0.5 h, time <=35 min
[15] = Half life in BALB/c mouse at 10 mg/kg, po measured upto 24 hrs by LC-MS/MS analysis; assay type: ADME, organism-based; details: in vivo
[16] = Cmax in Lewis rat at 1 mg/kg, iv measured upto 24 hrs by LC-MS/MS analysis; assay type: ADME, organism-based; parameters: route intravenous, dose 1 mg/kg, time <=24; details: in vivo
Cytochrome P450 2A6 = target: T3, Cytochrome P450 2A6 (Homo sapiens, UniProt P11509); assay: Inhibition of CYP2A6 in human liver microsomes at 10 uM by LC-MS/MS analysis; assay type: ADME
T3 sequence (P11509 whole entry): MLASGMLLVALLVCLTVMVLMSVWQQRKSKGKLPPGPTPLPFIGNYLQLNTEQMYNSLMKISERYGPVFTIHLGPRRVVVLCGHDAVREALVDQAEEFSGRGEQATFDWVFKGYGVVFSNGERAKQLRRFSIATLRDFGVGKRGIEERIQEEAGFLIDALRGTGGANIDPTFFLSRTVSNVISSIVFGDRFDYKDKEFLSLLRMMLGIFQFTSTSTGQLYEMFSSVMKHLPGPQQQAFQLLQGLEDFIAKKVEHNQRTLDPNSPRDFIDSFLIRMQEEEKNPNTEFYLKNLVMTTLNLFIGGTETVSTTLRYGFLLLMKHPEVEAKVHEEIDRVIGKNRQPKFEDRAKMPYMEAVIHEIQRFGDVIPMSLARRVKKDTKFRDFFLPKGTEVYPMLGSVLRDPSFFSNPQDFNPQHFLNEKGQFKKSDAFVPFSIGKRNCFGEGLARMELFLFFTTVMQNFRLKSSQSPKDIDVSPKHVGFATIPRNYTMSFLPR

Cytochrome P450 3A4 = Cytochrome P450 3A4 (Homo sapiens, UniProt P08684); assay: Inhibition of CYP3A4 in human liver microsomes at 10 uM by LC-MS/MS analysis; assay type: ADME
Cytochrome P450 2C19 = Cytochrome P450 2C19 (Homo sapiens, UniProt P33261); assay: Inhibition of CYP2C19 in human liver microsomes at 10 uM by LC-MS/MS analysis; assay type: ADME
[17] = AUClast in Lewis rat at 1 mg/kg, iv measured upto 24 hrs by LC-MS/MS analysis; assay type: ADME, organism-based; parameters: route intravenous, dose 1 mg/kg, time <=24; details: in vivo
[18] = Half life in BALB/c mouse at 1 mg/kg, iv measured upto 24 hrs by LC-MS/MS analysis; assay type: ADME, organism-based; details: in vivo

Chain of Cytochrome P450 2D6 (P10635 whole entry): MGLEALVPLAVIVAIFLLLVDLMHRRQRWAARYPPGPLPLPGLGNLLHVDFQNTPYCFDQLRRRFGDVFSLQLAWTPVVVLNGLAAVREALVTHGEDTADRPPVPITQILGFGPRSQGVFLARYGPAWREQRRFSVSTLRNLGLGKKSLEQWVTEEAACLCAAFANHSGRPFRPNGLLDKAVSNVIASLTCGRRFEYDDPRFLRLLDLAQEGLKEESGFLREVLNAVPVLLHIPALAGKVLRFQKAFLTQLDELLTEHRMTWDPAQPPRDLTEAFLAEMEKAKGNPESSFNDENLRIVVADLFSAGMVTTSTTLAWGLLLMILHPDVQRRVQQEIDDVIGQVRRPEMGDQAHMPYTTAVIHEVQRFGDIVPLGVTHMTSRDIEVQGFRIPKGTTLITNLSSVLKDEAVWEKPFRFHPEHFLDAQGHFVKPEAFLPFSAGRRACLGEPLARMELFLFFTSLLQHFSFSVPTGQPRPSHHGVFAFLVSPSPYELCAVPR
Chain of Cytochrome P450 3A4 (P08684 whole entry): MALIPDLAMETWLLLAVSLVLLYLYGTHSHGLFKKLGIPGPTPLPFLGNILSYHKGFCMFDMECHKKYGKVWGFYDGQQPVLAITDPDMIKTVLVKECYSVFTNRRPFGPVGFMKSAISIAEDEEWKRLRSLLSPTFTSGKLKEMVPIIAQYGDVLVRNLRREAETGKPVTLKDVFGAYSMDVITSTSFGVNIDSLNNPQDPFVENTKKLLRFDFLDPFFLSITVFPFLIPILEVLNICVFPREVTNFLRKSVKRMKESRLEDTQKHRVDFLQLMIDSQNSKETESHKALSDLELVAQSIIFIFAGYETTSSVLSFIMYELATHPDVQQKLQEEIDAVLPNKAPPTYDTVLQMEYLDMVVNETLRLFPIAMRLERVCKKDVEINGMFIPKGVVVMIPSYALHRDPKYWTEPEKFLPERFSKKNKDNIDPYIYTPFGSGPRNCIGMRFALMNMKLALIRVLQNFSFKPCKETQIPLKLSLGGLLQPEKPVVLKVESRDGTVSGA
Chain of Cytochrome P450 2C19 (P33261 whole entry): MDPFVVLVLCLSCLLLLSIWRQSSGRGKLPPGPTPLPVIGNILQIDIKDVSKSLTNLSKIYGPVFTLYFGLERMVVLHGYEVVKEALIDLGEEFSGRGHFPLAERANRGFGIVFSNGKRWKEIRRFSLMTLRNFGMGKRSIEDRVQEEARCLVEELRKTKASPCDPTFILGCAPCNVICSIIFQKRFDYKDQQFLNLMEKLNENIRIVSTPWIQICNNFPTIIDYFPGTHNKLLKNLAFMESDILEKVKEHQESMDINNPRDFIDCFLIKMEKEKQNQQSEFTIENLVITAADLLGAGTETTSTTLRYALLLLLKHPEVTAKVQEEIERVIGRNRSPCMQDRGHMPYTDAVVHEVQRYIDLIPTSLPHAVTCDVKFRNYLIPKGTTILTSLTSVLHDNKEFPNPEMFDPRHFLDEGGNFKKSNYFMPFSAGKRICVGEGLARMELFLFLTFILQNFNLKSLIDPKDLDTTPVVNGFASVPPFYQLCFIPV
Chain of Cytochrome P450 2C9 (P11712 whole entry): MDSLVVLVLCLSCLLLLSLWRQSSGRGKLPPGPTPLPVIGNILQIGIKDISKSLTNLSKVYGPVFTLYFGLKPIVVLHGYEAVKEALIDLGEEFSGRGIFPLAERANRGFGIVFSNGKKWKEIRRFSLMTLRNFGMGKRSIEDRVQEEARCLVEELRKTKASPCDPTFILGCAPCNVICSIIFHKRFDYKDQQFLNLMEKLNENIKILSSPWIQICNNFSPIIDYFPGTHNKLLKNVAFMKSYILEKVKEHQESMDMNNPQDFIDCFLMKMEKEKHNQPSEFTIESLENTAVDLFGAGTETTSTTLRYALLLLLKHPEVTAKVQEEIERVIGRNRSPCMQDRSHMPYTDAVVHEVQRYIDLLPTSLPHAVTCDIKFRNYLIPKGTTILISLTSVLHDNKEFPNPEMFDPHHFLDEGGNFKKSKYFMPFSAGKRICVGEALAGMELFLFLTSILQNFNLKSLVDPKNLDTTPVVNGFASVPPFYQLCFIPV

Row | Structure (SMILES) | clearance [1] [mL/min/kg] | inhibition (INH) (Cytochrome P450 2C9) | Stability [2] | Tmax [3] [min] | bioavailability [4] [%] | Papp A→B at 2 h, 5 µM [5] [×10⁻⁶ cm/s] | Vd [6] [L/kg] | Tmax [7] [h] | Cmax [8] [µM] | inhibition (INH) (Cytochrome P450 2D6) | fraction unbound [9] | Cmax [10] [µM] | Stability [11] | inhibition (INH) (Cytochrome P450 2B6) | half-life [12] [h] | inhibition (INH) (Cytochrome P450 1A2) | clearance [13] [mL/min/kg] | Stability [14] | half-life [15] [h] | Cmax [16] [µM] | other results
1 | Cc1c(-c2ccc(NC(=O)c3c(F)cccc3F)cc2)cccc1-c1nn(C)c(=O)o1 | 0.9 | Not Active | Stable | 4.8 | 100 | 14.1 | 1 | 8 | 4.2 | Not Active | 0.01 | 20 | Stable | Not Active | > 15 | Not Active | 5.2 | Stable | 5.3 | 4 | inhibition (INH) (Cytochrome P450 2A6): Not Active; inhibition (INH) (Cytochrome P450 3A4): Not Active; inhibition (INH) (Cytochrome P450 2C19): Not Active; AUC(0-t) at 24 h [17]: 29 µM·h; half-life [18]: 6.4 h
2 | Cc1c(-c2ccc(NC(=O)c3c(F)cccc3Cl)cc2)cccc1-c1nn(C)c(=O)o1 | 1 | Not Active | Stable | 4.8 | 60 | 12.3 | 1 | 2 | 4.3 | Not Active | 0.01 | 10 | Stable | Not Active | 13 | Not Active | 8 | Stable | 6 | 5 | inhibition (INH) (Cytochrome P450 2A6): Not Active; inhibition (INH) (Cytochrome P450 3A4): Not Active; inhibition (INH) (Cytochrome P450 2C19): Not Active; AUC(0-t) at 24 h [17]: 28 µM·h; half-life [18]: 5 h

Source: ChEMBL document CHEMBL4831556, “Discovery of a Novel Potent and Selective Calcium Release-Activated Calcium Channel Inhibitor: 2,6-Difluoro-N-(2'-methyl-3'-(4-methyl-5-oxo-4,5-dihydro-1,3,4-oxadiazol-2-yl)-[1,1'-biphenyl]-4-yl)benzamide. Structure-Activity Relationship and Preclinical Characterization” (J Med Chem, 2021)
